Data taken from ChEMBL document CHEMBL2074403, “The solvents cremophor EL and Tween 80 modulate daunorubicin resistance in the multidrug resistant Ehrlich ascites tumor” (Cancer Commun, 1990).

Columns and labels:
[1] = target: T1, ATP-dependent translocase ABCB1 (Homo sapiens, UniProt P08183); test: TP_TRANSPORTER: inhibition of Daunorubicin efflux (Daunorubicin: 5 uM, Tween 80: 0.01 %(v/v)) in EHR2/DNR+ cells; type: functional, cell-based; conditions: mouse
[2] = target: T1, ATP-dependent translocase ABCB1; test: TP_TRANSPORTER: inhibition of Daunorubicin efflux (Daunorubicin: 5 uM, Cremophor EL: 0.01 %(v/v)) in EHR2/DNR+ cells; type: functional, cell-based; conditions: mouse

T1 sequence (P08183 whole entry): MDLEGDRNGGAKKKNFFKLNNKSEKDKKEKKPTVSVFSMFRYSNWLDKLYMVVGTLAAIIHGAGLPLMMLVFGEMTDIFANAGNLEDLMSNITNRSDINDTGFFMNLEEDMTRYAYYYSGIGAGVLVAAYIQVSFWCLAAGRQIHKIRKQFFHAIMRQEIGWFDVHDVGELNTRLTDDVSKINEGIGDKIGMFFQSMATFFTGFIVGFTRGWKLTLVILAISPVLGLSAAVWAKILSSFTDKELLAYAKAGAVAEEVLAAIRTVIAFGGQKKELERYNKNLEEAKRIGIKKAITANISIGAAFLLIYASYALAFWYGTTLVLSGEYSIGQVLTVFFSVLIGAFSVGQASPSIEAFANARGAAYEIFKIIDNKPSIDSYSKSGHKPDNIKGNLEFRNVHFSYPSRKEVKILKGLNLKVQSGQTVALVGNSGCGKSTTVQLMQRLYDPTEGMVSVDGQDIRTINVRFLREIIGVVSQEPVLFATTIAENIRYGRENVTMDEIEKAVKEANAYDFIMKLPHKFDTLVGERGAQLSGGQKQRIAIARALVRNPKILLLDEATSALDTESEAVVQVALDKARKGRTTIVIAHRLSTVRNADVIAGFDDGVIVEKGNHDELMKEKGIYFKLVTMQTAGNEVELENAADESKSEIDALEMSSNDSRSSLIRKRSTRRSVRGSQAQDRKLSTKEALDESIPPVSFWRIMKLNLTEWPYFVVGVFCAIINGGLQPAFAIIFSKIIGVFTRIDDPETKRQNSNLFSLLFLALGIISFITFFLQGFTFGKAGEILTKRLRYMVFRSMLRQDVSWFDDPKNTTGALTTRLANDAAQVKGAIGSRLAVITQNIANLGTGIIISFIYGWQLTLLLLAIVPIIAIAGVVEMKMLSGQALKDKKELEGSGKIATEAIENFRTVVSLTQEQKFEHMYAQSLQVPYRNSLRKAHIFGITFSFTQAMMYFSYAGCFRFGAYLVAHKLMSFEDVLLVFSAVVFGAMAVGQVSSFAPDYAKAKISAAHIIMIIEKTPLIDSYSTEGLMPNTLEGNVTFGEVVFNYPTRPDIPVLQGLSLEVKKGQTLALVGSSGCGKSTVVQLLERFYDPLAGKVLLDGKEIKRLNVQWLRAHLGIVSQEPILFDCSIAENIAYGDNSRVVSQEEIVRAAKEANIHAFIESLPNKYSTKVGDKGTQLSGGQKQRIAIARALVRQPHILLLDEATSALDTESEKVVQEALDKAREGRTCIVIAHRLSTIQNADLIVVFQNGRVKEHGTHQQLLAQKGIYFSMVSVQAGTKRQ

Row | Molecule | Activity [1] | Activity [2]
1 | CCCCCCCC/C=C\CCCCCCCC(=O)OCCOCC(OCCO)C1OCC(OCCO)C1OCCO (configuration not stated) [TWEEN 80] | inhibitor [+] | 
2 | CREMOPHOR EL |  | inhibitor [+]
